# Test results reported in paper PMC3266904, “Biochemical Discrimination between Selenium and Sulfur 2: Mechanistic Investigation of the Selenium Specificity of Human Selenocysteine Lyase” (PLoS ONE, 2012).
# Molecular target: T1, human selenocysteine lyase (hSCL) (Homo sapiens, UniProt Q96I15)
# T1 construct: gene SCLY
# T1 sequence (Q96I15 8-445): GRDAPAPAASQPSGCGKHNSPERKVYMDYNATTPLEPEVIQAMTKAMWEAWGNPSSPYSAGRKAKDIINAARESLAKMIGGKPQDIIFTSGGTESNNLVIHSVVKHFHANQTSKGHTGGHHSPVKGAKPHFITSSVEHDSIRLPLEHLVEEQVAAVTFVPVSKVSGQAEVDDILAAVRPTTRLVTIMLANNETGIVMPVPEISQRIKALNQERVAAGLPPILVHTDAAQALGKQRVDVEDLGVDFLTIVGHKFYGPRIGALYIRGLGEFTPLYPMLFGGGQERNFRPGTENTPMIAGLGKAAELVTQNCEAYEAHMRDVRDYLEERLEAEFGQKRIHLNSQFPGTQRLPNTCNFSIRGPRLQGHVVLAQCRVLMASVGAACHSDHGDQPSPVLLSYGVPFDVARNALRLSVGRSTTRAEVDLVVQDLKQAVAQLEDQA
# Experiment: UV/Vis spectrum of as-isolated protein
# Assay type: binding
# Settings: 120 mM Tris pH 8.5, 2 mM TCEP; covalent internal aldimine
structure (smiles),measurement,value
Cc1ncc(COP(=O)(O)O)c(C=O)c1O [PLP],UV/Vis spectrum of as-isolated protein,the Shiff base linking the PLP cofactor to the protein exists mainly in the protonated
